Measurements as given in publication PMC9769694, “Discovery of Two Inhibitors of the Type IV Pilus Assembly ATPase PilB as Potential Antivirulence Compounds” (Microbiology Spectrum, 2022).

Tests used:
[1] = target: T1, CtPilBΔN (Chloracidobacterium thermophilum, UniProt G2LDI3); assay: ATPase assay of truncated CtPilB variant without N-terminal MshEN domain; assay type: biochemical; conditions: read-out: IC50, ATPase activity of PilBΔN
T1 sequence (G2LDI3 140-614): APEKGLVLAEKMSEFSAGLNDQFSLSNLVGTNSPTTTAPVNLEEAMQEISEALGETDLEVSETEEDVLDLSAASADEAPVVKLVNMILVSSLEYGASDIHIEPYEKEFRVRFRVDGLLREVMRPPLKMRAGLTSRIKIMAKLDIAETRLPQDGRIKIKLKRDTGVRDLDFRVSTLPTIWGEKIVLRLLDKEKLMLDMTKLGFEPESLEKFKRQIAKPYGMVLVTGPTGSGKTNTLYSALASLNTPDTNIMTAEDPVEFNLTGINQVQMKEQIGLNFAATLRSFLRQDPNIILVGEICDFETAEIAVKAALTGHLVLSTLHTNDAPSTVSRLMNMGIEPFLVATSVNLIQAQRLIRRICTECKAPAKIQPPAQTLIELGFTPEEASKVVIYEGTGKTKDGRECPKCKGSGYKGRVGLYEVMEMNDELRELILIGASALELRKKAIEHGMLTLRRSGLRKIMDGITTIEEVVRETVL
Excerpt: CtPilB, like its orthologue MshE ([35]), has a MshEN-like cyclic di-GMP-binding domain at its N terminus and a well-conserved ATPase domain at its C terminus ([28], [29]). To determine which domain the inhibitors interact with, we tested the effects of benserazide and levodopa on the ATPase activity of a truncated CtPilB variant (PilBΔN) without the N-terminal MshEN domain ([29]). […] These values are similar to those against the full-length PilB (Fig. 2).
The full-length CtPilB and the CtPilBΔN variant (with the first 139 residues at the N terminus truncated) were purified as preciously described ([29]). The HTS was conducted using 384-well microplates (Greiner, cat no. 781101). Each microwell for the screen contained a 15-μL reaction mixture consisting of 75 nM CtPilB, 0.5 mM ATP, 20 μM of a library compound, and 2% DMSO in activity buffer (50 mM N-tris(hydroxymethyl)methyl-3-aminopropanesulfonic acid [TAPS], 50 mM Tris, 75 mM KCl, 50 mM sodium acetate, 5 mM MgCl2, 50 mM ZnCl2 [pH 8.7]) ([29]). Reaction mixtures were incubated at 55°C for 10 min and transferred to ice for 5 min to stop the enzymatic reaction. […] Absorbance at 620 nm (A620) was measured using a SpectraMax M5 microplate reader at room temperature. […]
The effects of inhibitors on the ATPase activity of CtPilB and CtPilBΔN and the binding of MANT-ATP were determined as described previously ([28], [29]). […]

[2] = system: A. nosocomialis biofilm formation; assay: Biofilm formation, microplate assay with crystal violet staining; assay type: cell-based, Acinetobacter nosocomialis; conditions: WT, P < 0.05
Excerpt: The inhibitors may thus interact with conserved features of the PilB ATPase family. A. nosocomialis PilB ([19]), whose N terminus is not similar to the MshEN domain (data not shown), shares ~53% identity and ~74% homology with MxPilB and MC3PilB in the ATPase domain (Fig. S1). We analyzed whether benserazide and levodopa could impact the T4P-powered twitching motility ([19], [44]) of A. nosocomialis (Fig. 7), an opportunistic pathogen in the Acinetobacter calcoaceticus-Acinetobacter baumannii (ACB) complex ([45]). As shown in Fig. 7A and B and Fig. S7, benserazide and levodopa impede the twitching motility of WT A. nosocomialis in a concentration-dependent manner.
FIG 7 Benserazide and levodopa inhibit Acinetobacter nosocomialis twitching motility and biofilm formation. […] (C and D) Biofilms formed by A. nosocomialis with (C) benserazide or (D) levodopa were analyzed by a microplate assay with crystal violet (CV) staining. […]
The A. nosocomialis wild-type M2 strain and an isogenic pilA deletion (ΔpilA) mutant ([19], [46]) were used in this study. […] The twitching motility of the M2 strain of A. nosocomialis was analyzed with 1% crystal violet (CV) for staining, and twitching areas were used as measures of motility as previously described ([46]). […] A. nosocomialis biofilm formation was analyzed using microplates and CV staining as previously described ([53], [54]). […]

[3] = target: CtPilB (Chloracidobacterium thermophilum, UniProt G2LDI3); assay: MANT-ATP binding to CtPilB (fluorescence); conditions: for Ki: estimated by Cheng-Prusoff equation from MANT-ATP IC50, assuming competitive inhibition, read-out: Ki (inhibition constant); for IC50: fraction of MANT-ATP bound, fluorescence
CtPilB, sequence (G2LDI3 entry or part of it): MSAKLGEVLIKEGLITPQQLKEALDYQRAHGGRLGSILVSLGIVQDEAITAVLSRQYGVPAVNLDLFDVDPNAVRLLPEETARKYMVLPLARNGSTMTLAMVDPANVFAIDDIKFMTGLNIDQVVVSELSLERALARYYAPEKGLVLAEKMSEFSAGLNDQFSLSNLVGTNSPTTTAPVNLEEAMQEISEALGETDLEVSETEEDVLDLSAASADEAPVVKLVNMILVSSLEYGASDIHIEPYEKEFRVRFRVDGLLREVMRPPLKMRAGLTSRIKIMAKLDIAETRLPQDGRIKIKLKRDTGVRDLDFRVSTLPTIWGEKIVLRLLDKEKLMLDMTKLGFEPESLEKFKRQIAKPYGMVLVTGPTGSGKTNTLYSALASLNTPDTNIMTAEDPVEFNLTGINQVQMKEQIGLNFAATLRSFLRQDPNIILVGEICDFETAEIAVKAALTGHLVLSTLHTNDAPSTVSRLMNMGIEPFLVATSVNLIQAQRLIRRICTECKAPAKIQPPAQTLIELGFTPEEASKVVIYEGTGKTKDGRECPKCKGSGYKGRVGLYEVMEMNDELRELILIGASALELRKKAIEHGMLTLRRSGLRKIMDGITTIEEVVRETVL
Protocol: To probe the mechanisms of inhibition, we examined benserazide and levodopa for their effects on the binding of PilB to the fluorescent ATP analog MANT-ATP ([28]).
FIG 3 Benserazide and levodopa reduce MANT-ATP binding to CtPilB. Fluorescence was used to calculate the fraction of MANT-ATP bound to CtPilB. Experiments were performed in triplicates with samples containing constant concentrations of CtPilB and MANT-ATP with varying concentrations of (A) benserazide or (B) levodopa. The three different sets of colored dots represent averages from three independent experiments with error bars omitted for clarity. Best fits to isotherms with indicated IC50s are shown.
The effects of inhibitors on the ATPase activity of CtPilB and CtPilBΔN and the binding of MANT-ATP were determined as described previously ([28], [29]). Stock solutions were prepared by dissolving benserazide hydrochloride (Alfa Aesar) or levodopa (Spectrum Chemical Mfg. Corp.) in dimethyl sulfoxide (DMSO; Fisher Biotech). Next, 10× working stocks for given concentrations of an inhibitor were freshly prepared before their use in an experiment. GraphPad Prism v7.04 was used for curve fitting and Student’s t test was used for statistical analysis.

How did the IC50 [1] turn out when N[C@@H](Cc1ccc(O)c(O)c1)C(=O)O [levodopa, 3,4-dihydroxyphenylalanine] was run?
Its IC50 is 76.2 ± 9.2 µM.

And the “concentration significantly reducing biofilm formation” value [2]?
Its value is no less than 32 µM.

What about the Ki [3] of the same compound?
Its Ki is 3.4 µM.

What about the IC50 [3] of the same compound?
The IC50 was 50.5 ± 9.2 µM.

Which IC50 [1] does the source give for NC(CO)C(=O)NNCc1ccc(O)c(O)c1O (centres unmarked) [benserazide] here?
Its IC50 is 2.2 ± 0.4 µM.

What about the “concentration significantly reducing biofilm formation” value [2] of the same compound?
The value was no less than 32 µM.

And the Ki [3]?
The Ki was 2.27 µM.

And the IC50 [3]?
The IC50 was 33.6 ± 0.5 µM.
